Results as given in patent US20230248626A1, “Compositions Comprising (Bio)-Alkanediols” (Symrise AG, priority 0001, published 2023).
≈ marks a conversion by molar mass, not a printed value.

Experiments:
Assay type in all cases: cell-based
Candida albicans = assay: MIC test (growth inhibition, 96 well plates, OD); conditions: read-out: Minimum Inhibitory Concentration (MIC)
Description: (§1) The MIC test is a test on growth inhibition. Estimation of Minimum Inhibitory Concentration (MIC) is executed in 96 well plates. Through the comparison of bacterial growth with positive and negative controls via optical density (OD), different concentrations of given test substances are evaluated.
(§2) Bacteria are cultivated under adjusted conditions based on information of the German Collection of Microorganisms and Cell Cultures (DSMZ) and stored in 50% Glycerol prior to use. Afterwards, the following method was applied: Adding growth medium (according to microorganism) to each well of the microplate. Adding the test-substances in different concentrations, positive controls (water controls only with medium) and negative controls (benchmarks according to organism). Adding the microorganism in a concentration of 10^6 CFU/ml (CFU=colony forming units). Incubation of the microplates at appropriate conditions.
(§3) According to resulting growth, substance concentrations are labelled either as inhibiting or not and MIC is defined as the lowest concentration where a complete growth inhibition is visible. Experiments at concentration limits (highest concentration labelled as growth and lowest concentration labelled as inhibiting) are performed at least twice.

Corynebacterium jeikeium = assay: MIC test (growth inhibition, 96 well plates, OD); conditions: read-out: Minimum Inhibitory Concentration (MIC)
Description: as §1, §2, §3

Escherichia coli = assay: MIC test (growth inhibition, 96 well plates, OD); conditions: read-out: Minimum Inhibitory Concentration (MIC)
Description: as §1, §2, §3

Propionibacterium acnes = assay: MIC test (growth inhibition, 96 well plates, OD); conditions: Cutibacterium acnes; read-out: Minimum Inhibitory Concentration (MIC)
Description: as §1, §2, §3

Staphylococcus aureus = assay: MIC test (growth inhibition, 96 well plates, OD); conditions: read-out: Minimum Inhibitory Concentration (MIC)
Description: as §1, §2, §3

Staphylococcus hominis = assay: MIC test (growth inhibition, 96 well plates, OD); conditions: read-out: Minimum Inhibitory Concentration (MIC)
Description: as §1, §2, §3

[1] = test system: Aspergillus brasiliensis (AB); assay: Preservation efficacy test (PET), European Pharmacopoeia 5.1.3
Description: (§4) The preservation efficacy test (PET) was performed in accordance with European Pharmacopoeia § 5.1.3: The test is a reference European Pharmacopoeia method, that is to be used to evaluate the preservation system of a cosmetic or pharmaceutical preparation. The test consists of challenging the preparation under test, with prescribed inoculums of suitable microorganisms. The preservation porperties of the preparation are adequate if, in the conditions of the test, there is a significant fall or no increase, as appropriate, in the number of microorganisms in the inoculated preparations after the time prescribed.
(§5) The test microorganisms which were used, are the following:
(§6) Pseudomonas aeruginosa (PA) (bacterium); Staphylococcus aureus (SA) (bacterium); Escherichia coli (EC) (bacterium); Candida albicans (CA) (yeast); and Aspergillus brasiliensis (AB) (fungus).

Candida albicans (CA) = assay: as above
Description: as §4, §5, §6

Escherichia coli (EC) = assay: as above
Description: as §4, §5, §6

[2] = test system: Pseudomonas aeruginosa (PA); assay: as above
Description: as §4, §5, §6

[3] = test system: Staphylococcus aureus (SA); assay: as above
Description: as §4, §5, §6

SMILES: CCCCC(O)C(C)O (centres unmarked) [2,3-heptanediol]
- MIC (Candida albicans): > 5000 µg/mL
- MIC (Corynebacterium jeikeium): > 5000 µg/mL
- MIC (Escherichia coli): > 5000 µg/mL
- MIC (Propionibacterium acnes): > 5000 µg/mL
- MIC (Staphylococcus aureus): 20000 µg/mL (≈ 151 mM)
- MIC (Staphylococcus hominis): > 5000 µg/mL
- number of microorganisms after 2 days ([1]; 0.1% in shampoo): 1,600,000
- number of microorganisms after 7 days ([1]; 0.1% in shampoo): 970,000
- number of microorganisms after 14 days ([1]; 0.1% in shampoo): 110,000
- number of microorganisms after 28 days ([1]; 0.1% in shampoo): 120,000
- number of microorganisms after 2 days ([1]; 0.2% in o/w emulsion): 1,600,000
- number of microorganisms after 7 days ([1]; 0.2% in o/w emulsion): 1,600,000
- number of microorganisms after 14 days ([1]; 0.2% in o/w emulsion): 3,000,000
- number of microorganisms after 28 days ([1]; 0.2% in o/w emulsion): 2,000,000
- number of microorganisms after 2 days ([1]; 0.4% in o/w emulsion): 790,000
- number of microorganisms after 7 days ([1]; 0.4% in o/w emulsion): 930,000
- number of microorganisms after 14 days ([1]; 0.4% in o/w emulsion): 500,000
- number of microorganisms after 28 days ([1]; 0.4% in o/w emulsion): 390,000
- number of microorganisms after 2 days ([1]; 0.4% in shampoo): 2,200,000
- number of microorganisms after 7 days ([1]; 0.4% in shampoo): 350,000
- number of microorganisms after 14 days ([1]; 0.4% in shampoo): 130,000
- number of microorganisms after 28 days ([1]; 0.4% in shampoo): 140,000
- number of microorganisms after 2 days (Candida albicans (CA); 0.1% in shampoo): 110,000
- number of microorganisms after 7 days (Candida albicans (CA); 0.1% in shampoo): 20,000
- number of microorganisms after 14 days (Candida albicans (CA); 0.1% in shampoo): 100
- number of microorganisms after 28 days (Candida albicans (CA); 0.1% in shampoo): 1
- number of microorganisms after 2 days (Candida albicans (CA); 0.2% in o/w emulsion): 1,900,000
- number of microorganisms after 7 days (Candida albicans (CA); 0.2% in o/w emulsion): 2,200,000
- number of microorganisms after 14 days (Candida albicans (CA); 0.2% in o/w emulsion): 2,100,000
- number of microorganisms after 28 days (Candida albicans (CA); 0.2% in o/w emulsion): 370,000
- number of microorganisms after 2 days (Candida albicans (CA); 0.4% in o/w emulsion): 640,000
- number of microorganisms after 7 days (Candida albicans (CA); 0.4% in o/w emulsion): 350,000
- number of microorganisms after 14 days (Candida albicans (CA); 0.4% in o/w emulsion): 130,000
- number of microorganisms after 28 days (Candida albicans (CA); 0.4% in o/w emulsion): 11,000
- number of microorganisms after 2 days (Candida albicans (CA); 0.4% in shampoo): 81
- number of microorganisms after 7 days (Candida albicans (CA); 0.4% in shampoo): 1
- number of microorganisms after 14 days (Candida albicans (CA); 0.4% in shampoo): 1
- number of microorganisms after 28 days (Candida albicans (CA); 0.4% in shampoo): 1
- number of microorganisms after 2 days (Escherichia coli (EC); 0.1% in shampoo): 1,100,000
- number of microorganisms after 7 days (Escherichia coli (EC); 0.1% in shampoo): 1,500,000
- number of microorganisms after 14 days (Escherichia coli (EC); 0.1% in shampoo): 1,600,000
- number of microorganisms after 28 days (Escherichia coli (EC); 0.1% in shampoo): 1,400,000
- number of microorganisms after 2 days (Escherichia coli (EC); 0.2% in o/w emulsion): 170,000
- number of microorganisms after 7 days (Escherichia coli (EC); 0.2% in o/w emulsion): 1,600
- number of microorganisms after 14 days (Escherichia coli (EC); 0.2% in o/w emulsion): 82
- number of microorganisms after 28 days (Escherichia coli (EC); 0.2% in o/w emulsion): 1
- number of microorganisms after 2 days (Escherichia coli (EC); 0.4% in o/w emulsion): 320,000
- number of microorganisms after 7 days (Escherichia coli (EC); 0.4% in o/w emulsion): 2,400
- number of microorganisms after 14 days (Escherichia coli (EC); 0.4% in o/w emulsion): 1
- number of microorganisms after 28 days (Escherichia coli (EC); 0.4% in o/w emulsion): 1
- number of microorganisms after 2 days (Escherichia coli (EC); 0.4% in shampoo): 1,200,000
- number of microorganisms after 7 days (Escherichia coli (EC); 0.4% in shampoo): 100,000
- number of microorganisms after 14 days (Escherichia coli (EC); 0.4% in shampoo): 75,000
- number of microorganisms after 28 days (Escherichia coli (EC); 0.4% in shampoo): 380,000
- number of microorganisms after 2 days ([2]; 0.1% in shampoo): 230,000
- number of microorganisms after 7 days ([2]; 0.1% in shampoo): 730,000
- number of microorganisms after 14 days ([2]; 0.1% in shampoo): 3,500,000
- number of microorganisms after 28 days ([2]; 0.1% in shampoo): 7,000,000
- number of microorganisms after 2 days ([2]; 0.2% in o/w emulsion): 1
- number of microorganisms after 7 days ([2]; 0.2% in o/w emulsion): 1
- number of microorganisms after 14 days ([2]; 0.2% in o/w emulsion): 1
- number of microorganisms after 28 days ([2]; 0.2% in o/w emulsion): 1
- number of microorganisms after 2 days ([2]; 0.4% in o/w emulsion): 1
- number of microorganisms after 7 days ([2]; 0.4% in o/w emulsion): 1
- number of microorganisms after 14 days ([2]; 0.4% in o/w emulsion): 1
- number of microorganisms after 28 days ([2]; 0.4% in o/w emulsion): 1
- number of microorganisms after 2 days ([2]; 0.4% in shampoo): 2,900
- number of microorganisms after 7 days ([2]; 0.4% in shampoo): 1
- number of microorganisms after 14 days ([2]; 0.4% in shampoo): 1
- number of microorganisms after 28 days ([2]; 0.4% in shampoo): 1
- number of microorganisms after 2 days ([3]; 0.1% in shampoo): 27,000
- number of microorganisms after 7 days ([3]; 0.1% in shampoo): 490
- number of microorganisms after 14 days ([3]; 0.1% in shampoo): 1
- number of microorganisms after 28 days ([3]; 0.1% in shampoo): 1
- number of microorganisms after 2 days ([3]; 0.2% in o/w emulsion): 1,300,000
- number of microorganisms after 7 days ([3]; 0.2% in o/w emulsion): 790,000
- number of microorganisms after 14 days ([3]; 0.2% in o/w emulsion): 55
- number of microorganisms after 28 days ([3]; 0.2% in o/w emulsion): 1
- number of microorganisms after 2 days ([3]; 0.4% in o/w emulsion): 1,000,000
- number of microorganisms after 7 days ([3]; 0.4% in o/w emulsion): 12,000
- number of microorganisms after 14 days ([3]; 0.4% in o/w emulsion): 1
- number of microorganisms after 28 days ([3]; 0.4% in o/w emulsion): 1
- number of microorganisms after 2 days ([3]; 0.4% in shampoo): 3,500
- number of microorganisms after 7 days ([3]; 0.4% in shampoo): 1
- number of microorganisms after 14 days ([3]; 0.4% in shampoo): 1
- number of microorganisms after 28 days ([3]; 0.4% in shampoo): 1
